From patent publication US9765060B2 (Gilead Sciences, Inc., priority 2014, dated 2017)
Like-named read-outs stand apart in the source and are kept apart here.

Target: PI3K isoform δ (Homo sapiens (Human), UniProt O00329)
Experiment: TR-FRET assay of enzymatic activity of class I PI3K isoforms
[1] = read-out: IC50 (nM) for PI3K isoform δ (Table 3), TR-FRET, 2× Km ATP, 2 μM PIP2, incubated for 30 minutes at 25° C.

PI3K isoform δ, sequence (O00329 whole entry, canonical isoform): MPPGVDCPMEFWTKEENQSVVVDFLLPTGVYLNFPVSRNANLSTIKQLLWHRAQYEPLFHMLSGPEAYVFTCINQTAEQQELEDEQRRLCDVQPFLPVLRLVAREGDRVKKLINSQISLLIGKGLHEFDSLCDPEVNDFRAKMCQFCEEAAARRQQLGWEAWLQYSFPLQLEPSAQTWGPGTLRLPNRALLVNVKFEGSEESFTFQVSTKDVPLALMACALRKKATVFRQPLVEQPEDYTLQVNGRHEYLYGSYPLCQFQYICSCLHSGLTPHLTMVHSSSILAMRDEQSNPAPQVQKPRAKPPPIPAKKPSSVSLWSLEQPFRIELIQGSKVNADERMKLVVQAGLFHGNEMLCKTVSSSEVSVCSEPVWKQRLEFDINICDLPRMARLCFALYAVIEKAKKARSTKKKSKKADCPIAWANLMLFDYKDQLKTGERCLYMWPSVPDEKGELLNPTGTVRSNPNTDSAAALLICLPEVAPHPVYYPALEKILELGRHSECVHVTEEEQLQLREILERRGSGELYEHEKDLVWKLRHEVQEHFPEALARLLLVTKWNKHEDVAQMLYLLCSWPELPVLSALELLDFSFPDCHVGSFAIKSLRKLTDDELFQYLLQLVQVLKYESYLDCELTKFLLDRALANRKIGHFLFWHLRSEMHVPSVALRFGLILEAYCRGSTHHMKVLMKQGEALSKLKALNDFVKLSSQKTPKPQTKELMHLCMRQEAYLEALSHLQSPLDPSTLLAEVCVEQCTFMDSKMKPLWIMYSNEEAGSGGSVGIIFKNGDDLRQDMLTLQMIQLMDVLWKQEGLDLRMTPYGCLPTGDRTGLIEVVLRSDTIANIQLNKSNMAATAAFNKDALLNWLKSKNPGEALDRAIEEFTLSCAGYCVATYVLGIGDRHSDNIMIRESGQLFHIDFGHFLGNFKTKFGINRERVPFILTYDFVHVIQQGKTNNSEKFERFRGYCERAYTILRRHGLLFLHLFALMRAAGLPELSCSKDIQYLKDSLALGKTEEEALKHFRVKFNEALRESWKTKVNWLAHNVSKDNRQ
PI3K isoform δ, sequence (P27986 whole entry partner, canonical isoform): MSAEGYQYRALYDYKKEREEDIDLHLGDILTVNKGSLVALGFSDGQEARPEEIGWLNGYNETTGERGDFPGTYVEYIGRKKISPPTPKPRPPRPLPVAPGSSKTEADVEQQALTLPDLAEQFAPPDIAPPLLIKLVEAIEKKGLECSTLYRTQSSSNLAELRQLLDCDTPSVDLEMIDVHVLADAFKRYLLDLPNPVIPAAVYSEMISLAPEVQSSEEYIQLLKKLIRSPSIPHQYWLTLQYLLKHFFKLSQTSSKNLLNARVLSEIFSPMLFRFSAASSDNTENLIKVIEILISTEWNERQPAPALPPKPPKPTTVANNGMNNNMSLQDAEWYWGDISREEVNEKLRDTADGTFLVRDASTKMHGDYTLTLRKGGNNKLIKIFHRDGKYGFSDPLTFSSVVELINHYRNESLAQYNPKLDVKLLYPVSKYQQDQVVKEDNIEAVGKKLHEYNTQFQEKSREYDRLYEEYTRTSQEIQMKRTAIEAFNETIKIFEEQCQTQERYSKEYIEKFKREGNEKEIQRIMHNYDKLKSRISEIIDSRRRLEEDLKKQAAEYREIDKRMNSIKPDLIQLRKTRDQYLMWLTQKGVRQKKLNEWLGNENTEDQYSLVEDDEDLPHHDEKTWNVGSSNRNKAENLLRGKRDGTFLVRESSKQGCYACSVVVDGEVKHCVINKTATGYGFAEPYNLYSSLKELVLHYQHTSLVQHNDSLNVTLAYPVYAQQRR
Text: TR-FRET monitored the formation of 3,4,5-inositol triphosphate molecule that competed with fluorescently labeled PIP3 for binding to the GRP-1 pleckstrin homology domain protein. […] Class I PI3K isoforms were expressed and purified as heterodimeric recombinant proteins. All assay reagents and buffers for the TR-FRET assay were purchased from Millipore.

Row | Compound | IC50 [1] | other results
1 | Cc1nccn1CCOc1cccc2nc([C@H](C)Nc3nc(N)nc(N)c3C#N)n(-c3ccccc3)c(=O)c12 [Compound 32, (S)-2,4-diamino-6-((1-(5-(2-(2-methyl-1H-imidazol-1-yl)ethoxy)-4-oxo-3-phenyl-3,4-dihydroquinazolin-2-yl)ethyl)amino)pyrimidine-5-carbonitrile] | 85 nM | 
2 | N#Cc1c(N)nc(N)nc1NC(c1nc2cccc(F)c2c(=O)n1-c1cccc(F)c1)C1CC1 (single isomer, unassigned) [Compound 15a, 2,4-diamino-6-((cyclopropyl(5-fluoro-3-(3-fluorophenyl)-4-oxo-3,4-dihydroquinazolin-2-yl)methyl)amino)pyrimidine-5-carbonitrile] |  | IC50: 6 nM
3 | Nc1nc(N)c(Cl)c(N2CCOC[C@H]2c2nc3cccc(Cl)c3c(=O)n2-c2ccccc2)n1 [Compound 100, (R)-5-chloro-2-(4-(2,6-diamino-5-chloropyrimidin-4-yl)morpholin-3-yl)-3-phenylquinazolin-4(3H)-one] | 8400 nM | 
4 | N-((3R,5S)-5-(5-chloro-3-(3-(difluorophenyl)-5-fluorophenyl)-4-oxo-3,4-dihydroquinazolin-2-yl)-1-(2,6-diamino-5-cyanopyrimidin-4-yl)pyrrolidin-3-yl)-2,2-difluoroacetamide [Compound 110] | 2 nM | 
5 | CS(=O)(=O)c1cccc2nc(C(Nc3nc(N)nc(N)c3C#N)C3CC3)n(-c3ccccc3F)c(=O)c12 (single isomer, unassigned) [Compound 17a-2] |  | IC50 (IC50 (nM) for PI3K isoform δ (Table 2), TR-FRET, 2× Km ATP, 2 μM PIP2, incubated for 30 minutes at 25° C.): 8 nM
6 | N#Cc1c(N)nc(N)nc1N1C[C@H](F)C[C@H]1c1nc2cccc(Cl)c2c(=O)n1-c1cc(F)cc(F)c1 [Compound 95, 2,4-diamino-6-((2S,4R)-2-(5-chloro-3-(3,5-difluorophenyl)-4-oxo-3,4-dihydroquinazolin-2-yl)-4-fluoropyrrolidin-1-yl)pyrimidine-5-carbonitrile] | 160 nM | 
7 | CO[C@H]1C[C@@H](c2nc3cccc(Cl)c3c(=O)n2-c2cc(F)cc(F)c2)N(c2nc(N)nc(N)c2C#N)C1 [Compound 19, 2,4-diamino-6-((2S)-2-(5-chloro-3-(3,5-difluorophenyl)-4-oxo-3,4-dihydroquinazolin-2-yl)-4-methoxypyrrolidin-1-yl)pyrimidine-5-carbonitrile] |  | IC50: 9 nM
8 | Cc1nc(N)c(Br)c(N[C@@H](C)c2nc3cccc(Cl)c3c(=O)n2-c2ccccc2)n1 [Compound 20, (S)-2-(1-((6-amino-5-bromo-2-methylpyrimidin-4-yl)amino)ethyl)-5-chloro-3-phenylquinazolin-4(3H)-one] | 21 nM | 
9 | C[C@H](Nc1nc(N)nc(N)c1Cl)c1nc2cccc(CCC(N)=O)c2c(=O)n1-c1cc(F)cc(F)c1 [Compound 42, (S)-3-(2-(1-((2,6-diamino-5-chloropyrimidin-4-yl)amino)ethyl)-3-(3,5-difluorophenyl)-4-oxo-3,4-dihydroquinazoline-5-yl)propanamide] | 20 nM | 
10 | N#Cc1c(N)nc(N)nc1N[C@H](c1nc2cccc(C#N)c2c(=O)n1-c1ccccc1)C1CC1 [Compound 1a, (S)-2-(cyclopropyl((2,6-diamino-5-cyanopyrimidin-4-yl)amino)methyl)-4-oxo-3-phenyl-3,4-dihydroquinazoline-5-carbonitrile] |  | IC50 (read-out: IC50 (nM) for PI3K isoform δ (Table 2), TR-FRET, 2× Km ATP, 2 μM PIP2, incubated for 30 minutes at 25° C.): 5 nM

Further lines, with some results ahead:

Row | IC50 [1] | Compound | other results
11 | 3 nM | N#Cc1c(N)nc(N)nc1N1CCC[C@H]1c1nc2cccc(CCCC(=O)O)c2c(=O)n1-c1ccccc1 [Compound 70, (S)-4-(2-(1-(2,6-diamino-5-cyanopyrimidin-4-yl)pyrrolidin-2-yl)-4-oxo-3-phenyl-3,4-dihydroquinazolin-5-yl)butanoic acid] | 
12 | 10 nM | C[C@H](Nc1nc(N)nc(N)c1C#N)c1nc2cccc(OCCN3CCCC3)c2c(=O)n1-c1ccccc1 [Compound 24, (S)-2,4-diamino-6-((1-(4-oxo-3-phenyl-5-(2-(pyrrolidin-1-yl)ethoxy)-3,4-dihydroquinazolin-2-yl)ethyl)amino)pyrimidine-5-carbonitrile] | 
13 | 1.4 nM | N#Cc1c(N)nc(N)nc1N[C@H](c1nc2cccc(CCCN3CCCCC3)c2c(=O)n1-c1ccccc1)C1CC1 [Compound 57, (S)-2,4-diamino-6-((cyclopropyl(4-oxo-3-phenyl-5-(3-(piperidin-1-yl)propyl)-3,4-dihydroquinazolin-2-yl)methyl)amino)pyrimidine-5-carbonitrile] | 
14 | 1 nM | C[C@H](Nc1nc(N)nc(N)c1C#N)c1nc2cccc(CCCC(=O)O)c2c(=O)n1-c1ccccc1 [Compound 69, (S)-4-(2-(1-((2,6-diamino-5-cyanopyrimidin-4-yl)amino)ethyl)-4-oxo-3-phenyl-3,4-dihydroquinazolin-5-yl)butanoic acid] | 
15 | 2 nM | N#Cc1c(N)nc(N)nc1N1CCC[C@H]1c1nc2cccc(C#N)c2c(=O)n1-c1ccccc1 [Compound 89, (S)-2-(1-(2,6-diamino-5-cyanopyrimidin-4-yl)pyrrolidin-2-yl)-4-oxo-3-phenyl-3,4-dihydroquinazoline-5-carbonitrile] | 
16 | 2 nM | N#Cc1c(N)nc(N)nc1N1CCC[C@H]1c1nc2cccc(Cl)c2c(=O)n1-c1cc(F)cc(F)c1 [Compound 83, (S)-2,4-diamino-6-(2-(5-chloro-3-(3,5-difluorophenyl)-4-oxo-3,4-dihydroquinazolin-2-yl)pyrrolidin-1-yl)pyrimidine-5-carbonitrile] | 
17 | 2 nM | C[C@H](Nc1nc(N)nc(N)c1C#N)c1nc2cccc(CCCC(=O)O)c2c(=O)n1-c1cc(F)cc(F)c1 [Compound 71, (S)-4-(2-(1-((2,6-diamino-5-cyanopyrimidin-4-yl)amino)ethyl)-3-(3,5-difluorophenyl)-4-oxo-3,4-dihydroquinazolin-5-yl)butanoic acid] | 
18 | 3 nM | CS(=O)(=O)c1cccc2nc([C@@H]3CCCN3c3nc(N)nc(N)c3C#N)n(-c3ccccc3F)c(=O)c12 (atropisomer, axis not shown) [Compound 74, (S)-2,4-diamino-6-(2-(3-(2-fluorophenyl)-5-(methylsulfonyl)-4-oxo-3,4-dihydroquinazolin-2-yl)pyrrolidin-1-yl)pyrimidine-5-carbonitrile] | 
19 | 10 nM | C[C@H](Nc1nc(N)nc(N)c1C#N)c1nc2cccc(OCCN3CCCCCC3)c2c(=O)n1-c1ccccc1 [Compound 23, (S)-2,4-diamino-6-((1-(5-(2-(azepan-1-yl)ethoxy)-4-oxo-3-phenyl-3,4-dihydroquinazolin-2-yl)ethyl)amino)pyrimidine-5-carbonitrile] | 
20 | 1.3 nM | C[C@H](Nc1nc(N)nc(N)c1C#N)c1nc2cccc(S(=O)(=O)c3ccccc3)c2c(=O)n1-c1cccc(F)c1 [Compound 76, (S)-2,4-diamino-6-((1-(3-(3-fluorophenyl)-4-oxo-5-(phenylsulfonyl)-3,4-dihydroquinazolin-2-yl)ethyl)amino)pyrimidine-5-carbonitrile] | 
21 | 1.2 nM | CS(=O)(=O)c1cccc2nc([C@@H]3CCCN3c3nc(N)nc(N)c3C#N)n(-c3c(F)cccc3F)c(=O)c12 [Compound 75, (S)-2,4-diamino-6-(2-(3-(2,6-difluorophenyl)-5-(methylsulfonyl)-4-oxo-3,4-dihydroquinazolin-2-yl)pyrrolidin-1-yl)pyrimidine-5-carbonitrile] | 
22 | 12 nM | Cc1cccc2c(=O)n(-c3cc(F)cc(F)c3)c([C@@H]3CCCN3c3nc(N)nc(N)c3C#N)nc12 [Compound 86, (S)-2,4-diamino-6-(2-(3-(3,5-difluorophenyl)-8-methyl-4-oxo-3,4-dihydroquinazolin-2-yl)pyrrolidin-1-yl)pyrimidine-5-carbonitrile] | 
